The record followed here is paper PMC7594867 (Journal of Enzyme Inhibition and Medicinal Chemistry, 2020).

Broadly, the IC50 is the concentration at which inhibition is half-maximal.

Holding throughout (format): cell-based
The subject of one experiment is MCF-7. As to the kind of experiment: MTT cytotoxicity assay, MCF-7. To be noted: for IC50: Homo sapiens, MCF7, 72 h, read-out: IC50 ± SD, MCF-7; for Selectivity index, MCF-7: IC50 MRC-5 / IC50 MCF-7. (In general: Formazan colour is commonly taken as a measure of viable cells.)
The subject of a further experiment is A2780. As to the kind of experiment: MTT cytotoxicity assay, A2780. The note with it: for IC50: Homo sapiens, A2780, 72 h, read-out: IC50 ± SD, A2780; for Selectivity index, A2780: IC50 MRC-5 / IC50 A2780.
For a further experiment, the system named is HT29. As to the kind of experiment: MTT cytotoxicity assay, HT29. To be noted: for IC50: Homo sapiens, HT-29, 72 h, read-out: IC50 ± SD, HT29; for Selectivity index, HT29: IC50 MRC-5 / IC50 HT29.
Experiment [1] concerns normal human foetal lung fibroblast (MRC-5). As to the kind of experiment: MTT cytotoxicity assay, normal MRC-5 cells. The note with it: MRC5, 72 h, read-out: IC50 (µM ± SD) MRC-5.
Experiment [2] concerns MCF-7, A2780, and HT29 cell lines. Description: MTT cytotoxicity assay, three cancer cell lines taken together.

SMILES strings stand for the structures. Read-outs that look alike come from different tables or passages of the source.

On to `CCCCCCNC(=O)Nc1c(C#N)c2n(c1C(=O)Nc1ccccc1)CCC2` [Compound 16a, 7-Cyano-6-(3-hexylureido)-N-phenyl-2,3-dihydro-1H-pyrrolizine-5-carboxamide], for which the IC50 in the experiment on MCF-7 is 590 ± 10 nM; in the experiment on A2780, 350 ± 180 nM; with HT29, 850 ± 70 nM; in experiment [1], 11.9 ± 0.87 µM; in experiment [2] (72 h, read-out: IC50, range over the three cancer cell lines), 350 to 850 nM; in experiment [2] (read-out: Average IC50), 600 nM. Besides, the “Selectivity index, MCF-7” value with MCF-7 amounted to 20.10. In the experiment with A2780, the “Selectivity index, A2780” value was 33.89. Further, in the experiment with HT29, the “Selectivity index, HT29” value was 13.95. Besides, in experiment [2] (IC50 MRC-5 / IC50 cancer cell line), the “Selectivity index, range over the three cell lines” value is 13.95–33.89.

Consider `CCCCCCNC(=O)Nc1c(C#N)c2n(c1C(=O)Nc1ccc(C)cc1)CCC2` [Compound 16b, 7-Cyano-6-(3-hexylureido)-N-(p-tolyl)-2,3-dihydro-1H-pyrrolizine-5-carboxamide], for which the IC50 came to 1170 ± 310 nM with MCF-7; 230 ± 40 nM in the experiment with A2780; 1560 ± 140 nM in the experiment with HT29; 2.65 ± 0.29 µM in experiment [1]; 990 nM in experiment [2] (read-out: Average IC50). The “Selectivity index, MCF-7” value in the experiment on MCF-7 is 2.26. Moreover, the “Selectivity index, A2780” value in the experiment on A2780 worked out at 11.52. Also, the “Selectivity index, HT29” value in the experiment on HT29 came to 1.70.

With `CCCCCCNC(=O)Nc1c(C#N)c2n(c1C(=O)Nc1ccc(Cl)cc1)CCC2` [Compound 16c, N-(4-Chlorophenyl)-7-cyano-6-(3-hexylureido)-2,3-dihydro-1H-pyrrolizine-5-carboxamide], the 50% inhibitory concentration (IC50) is 34100 ± 4610 nM in the experiment on MCF-7; 530 ± 100 nM in the experiment on A2780; 3100 ± 100 nM in the experiment on HT29; 0.75 ± 0.14 µM in experiment [1]; 12600 nM in experiment [2] (read-out: Average IC50). In addition, the “Selectivity index, MCF-7” value in the experiment on MCF-7 turned out to be 0.02. Further, in the experiment with A2780, the “Selectivity index, A2780” value came to 1.42. For the same compound, in the experiment with HT29, the “Selectivity index, HT29” value is listed as 0.24.

As to `COc1ccc(NC(=O)Nc2c(C#N)c3n(c2C(=O)Nc2ccccc2)CCC3)cc1` [Compound 17a, 7-Cyano-6-(3-(4-methoxyphenyl)ureido)-N-phenyl-2,3-dihydro-1H-pyrrolizine-5-carboxamide], the IC50 in the experiment with MCF-7 was 900 ± 110 nM; in the experiment on A2780, 440 ± 30 nM; with HT29, 5290 ± 1510 nM; in experiment [1], 2.3 ± 0.15 µM; in experiment [2] (read-out: Average IC50), 2210 nM. Also, the “Selectivity index, MCF-7” value with MCF-7 turned out to be 2.56. The “Selectivity index, A2780” value in the experiment on A2780 was 5.23. For the same compound, the “Selectivity index, HT29” value in the experiment on HT29 was found to be 0.43.

For the compound `COc1ccc(NC(=O)Nc2c(C#N)c3n(c2C(=O)Nc2ccc(C)cc2)CCC3)cc1` [Compound 17b, 7-Cyano-6-(3-(4-methoxyphenyl)ureido)-N-(p-tolyl)-2,3-dihydro-1H-pyrrolizine-5-carboxamide], the IC50 with MCF-7 was 2850 ± 310 nM; in the experiment on A2780, 420 ± 70 nM; with HT29, 1440 ± 170 nM; in experiment [1], 6.2 ± 0.88 µM; in experiment [2] (read-out: Average IC50) it was 1570 nM. In the experiment with MCF-7, the “Selectivity index, MCF-7” value is on record as 2.18. In addition, the “Selectivity index, A2780” value in the experiment on A2780 is on record as 14.76. For the same compound, the “Selectivity index, HT29” value in the experiment on HT29 is given as 4.31.

With `COc1ccc(NC(=O)Nc2c(C#N)c3n(c2C(=O)Nc2ccc(Cl)cc2)CCC3)cc1` [Compound 17c, N-(4-Chlorophenyl)-7-cyano-6-(3-(4-methoxyphenyl)ureido)-2,3-dihydro-1H-pyrrolizine-5-carboxamide], the IC50 turned out to be 3360 ± 830 nM in the experiment with MCF-7; 540 ± 20 nM with A2780; 420 ± 160 nM in the experiment with HT29; 3.8 ± 0.25 µM in experiment [1]; 1440 nM in experiment [2] (read-out: Average IC50). Moreover, the “Selectivity index, MCF-7” value in the experiment with MCF-7 amounted to 1.13. Moreover, the “Selectivity index, A2780” value with A2780 is recorded as 7.04. Moreover, the “Selectivity index, HT29” value in the experiment on HT29 turned out to be 9.05.

Regarding `N#Cc1c(NC(=O)Nc2ccc(F)cc2)c(C(=O)Nc2ccccc2)n2c1CCC2` [Compound 18a, 7-Cyano-6-(3-(4-fluorophenyl)ureido)-N-phenyl-2,3-dihydro-1H-pyrrolizine-5-carboxamide], the IC50 in the experiment on MCF-7 was 10760 ± 70 nM; with A2780, 10600 ± 2830 nM; in the experiment with HT29, 9130 ± 850 nM; in experiment [1], 10.7 ± 0.61 µM; in experiment [2] (read-out: Average IC50), 10200 nM. Also, the “Selectivity index, MCF-7” value in the experiment with MCF-7 worked out at 0.99. Moreover, the “Selectivity index, A2780” value in the experiment with A2780 came out at 1.01. Besides, in the experiment with HT29, the “Selectivity index, HT29” value is recorded as 1.17.

As to `N#Cc1c(NC(=O)Nc2ccc(F)cc2)c(C(=O)Nc2ccc(Cl)cc2)n2c1CCC2` [Compound 18c, N-(4-Chlorophenyl)-7-cyano-6-(3-(4-fluorophenyl)ureido)-2,3-dihydro-1H-pyrrolizine-5-carboxamide], the IC50 in the experiment on MCF-7 was 290 ± 190 nM; in the experiment with A2780, 210 ± 100 nM; with HT29, 1380 ± 20 nM; in experiment [1], 0.1 ± 0.01 µM; in experiment [2] (read-out: Average IC50), 630 nM. Besides, in the experiment with MCF-7, the “Selectivity index, MCF-7” value turned out to be 0.34. In the experiment with A2780, the “Selectivity index, A2780” value is 0.48. Also, in the experiment with HT29, the “Selectivity index, HT29” value is 0.07.

For the compound `Cc1ccc(NC(=O)c2c(NC(=O)Nc3cccc4ccccc34)c(C#N)c3n2CCC3)cc1` [Compound 19b, 7-Cyano-6-(3-(naphthalen-1-yl)ureido)-N-(p-tolyl)-2,3-dihydro-1H-pyrrolizine-5-carboxamide], the IC50 was 440 ± 90 nM with MCF-7; 5390 ± 1130 nM with A2780; 680 ± 140 nM in the experiment on HT29; 1.54 ± 0.2 µM in experiment [1]; 2170 nM in experiment [2] (read-out: Average IC50). In addition, in the experiment on MCF-7, the “Selectivity index, MCF-7” value was 3.50. In addition, the “Selectivity index, A2780” value with A2780 came to 0.29. Moreover, in the experiment with HT29, the “Selectivity index, HT29” value turned out to be 2.26.

With `N#Cc1c(NC(=O)Nc2cccc3ccccc23)c(C(=O)Nc2ccc(Cl)cc2)n2c1CCC2` [Compound 19c, N-(4-Chlorophenyl)-7-cyano-6-(3-(naphthalen-1-yl)ureido)-2,3-dihydro-1H-pyrrolizine-5-carboxamide], the half-inhibitory concentration (IC50) worked out at 1270 ± 10 nM in the experiment on MCF-7; 3070 ± 1500 nM with A2780; 2560 ± 700 nM in the experiment with HT29; 2.68 ± 0.37 µM in experiment [1]; 2300 nM in experiment [2] (read-out: Average IC50). In addition, the “Selectivity index, MCF-7” value in the experiment with MCF-7 worked out at 2.11. Also, in the experiment on A2780, the “Selectivity index, A2780” value worked out at 0.87. Further, the “Selectivity index, HT29” value in the experiment on HT29 turned out to be 1.05.

For the compound `Cc1ccc(NC(=O)c2c(NC(=S)Nc3cccc4ccccc34)c(C#N)c3n2CCC3)cc1` [Compound 20b, 7-Cyano-6-(3-(naphthalen-1-yl)thioureido)-N-(p-tolyl)-2,3-dihydro-1H-pyrrolizine-5-carboxamide], the IC50 in the experiment on MCF-7 was found to be 4970 ± 420 nM; with A2780, 2040 ± 950 nM; in the experiment on HT29, 3830 ± 580 nM; in experiment [1], 2 ± 0.75 µM; in experiment [2] (read-out: Average IC50), 3610 nM. For the same compound, the “Selectivity index, MCF-7” value in the experiment with MCF-7 came out at 0.40. For the same compound, the “Selectivity index, A2780” value in the experiment with A2780 is recorded as 0.98. Further, in the experiment with HT29, the “Selectivity index, HT29” value was 0.52.

As for `N#Cc1c(NC(=S)Nc2cccc3ccccc23)c(C(=O)Nc2ccc(Cl)cc2)n2c1CCC2` [Compound 20c, N-(4-chlorophenyl)-7-cyano-6-(3-(naphthalen-1-yl)thioureido)-2,3-dihydro-1H-pyrrolizine-5-carboxamide], the IC50 came out at 1760 ± 950 nM with MCF-7; 2810 ± 980 nM with A2780; 3670 ± 1650 nM with HT29; 2.92 ± 0.6 µM in experiment [1]; 2750 nM in experiment [2] (read-out: Average IC50). Further, the “Selectivity index, MCF-7” value with MCF-7 was determined as 1.66. In addition, the “Selectivity index, A2780” value in the experiment with A2780 worked out at 1.04. In addition, the “Selectivity index, HT29” value in the experiment with HT29 is reported as 0.80.
